Source: patent publication US12077503B2, “Substituted cyclic amides and their use as herbicides” (FMC CORPORATION, priority 2015, dated 2024)

Experiments:
Type in all cases: in vivo
[1] = test system: ducksalad (Heteranthera limosa); test: Test B flooded paddy test
Summary of the method: (§1)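 Visual ratings (0 none to 100 complete control) are relative to untreated plants, taken 13–15 d after treatment in a greenhouse. Test material went straight into floodwater standing 3 cm above the soil, kept constant, on plants at the 2-leaf stage.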

[2] = test system: sedge, umbrella (small-flower umbrella sedge, Cyperus difformis); test: Test B flooded paddy test
Summary of the method: as §1

[3] = test system: barnyardgrass (Echinochloa crus-galli); test: Test B flooded paddy test
Summary of the method: as §1

rice (Oryra sativa) = test: Test B flooded paddy test
Summary of the method: as §1

[4] = test system: pigweed (Amaranthus retroflexus); test: Test A postemergence
Summary of the method: (§2)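 Visual injury scores from 0, no effect, to 100, complete control, were assigned versus untreated controls roughly 10 d after treatment in the greenhouse. Test chemicals, formulated with surfactant in a non-phytotoxic solvent, were applied to planted seeds as a preemergence soil spray or postemergence to one- to two-leaf plants 2 to 10 cm tall, in loam–sand soil.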

[5] = test system: wheat (Triticum aestivum); test: Test A postemergence
Summary of the method: as §2

[6] = test system: ryegrass, Italian (Italian ryegrass, Lolium multiflorum); test: Test A postemergence
Summary of the method: as §2

Kochia (Kochia scoparia) [7] = test: Test A postemergence
Summary of the method: as §2

[8] = test system: giant foxtail (Setaria faberii); test: Test A postemergence
Summary of the method: as §2

[9] = test system: blackgrass (Alopecurus myosuroides); test: Test A postemergence
Summary of the method: as §2

[10] = test system: barnyardgrass (Echinochloa crus-galli); test: Test A postemergence
Summary of the method: as §2

[11] = test system: ragweed (common ragweed, Ambrosia elatior); test: Test A postemergence
Summary of the method: as §2

[12] = test system: Galium (catchweed bedstraw, Galium aparine); test: Test A postemergence
Summary of the method: as §2

corn (Zea mays) = test: Test A postemergence
Summary of the method: as §2

[13] = test system: pigweed (Amaranthus retroflexus); test: Test A preemergence
[14] = test system: ryegrass, Italian (Italian ryegrass, Lolium multiflorum); test: Test A preemergence
Summary of the method: as §2

Kochia (Kochia scoparia) [15] = test: Test A preemergence
Summary of the method: as §2

[16] = test system: giant foxtail (Setaria faberii); test: Test A preemergence
Summary of the method: as §2

[17] = test system: barnyardgrass (Echinochloa crus-galli); test: Test A preemergence
Summary of the method: as §2

[18] = test system: ragweed (common ragweed, Ambrosia elatior); test: Test A preemergence
Summary of the method: as §2

[19] = Flood, 250 g ai/ha, 0 to 100 scale where 0 is no effect and 100 is complete control, 13 to 15 d
[20] = 500 g ai/ha, postemergence, 0 to 100 scale, 0 no effect, 100 complete control
[21] = Postemergence, 125 g ai/ha, visual injury, 0 to 100 scale (0 no effect, 100 complete control), approx. 10 d
[22] = 125 g ai/ha, preemergence, 0 to 100 scale (0 no effect, 100 complete control)
[23] = Preemergence, 500 g ai/ha, 0 is no effect, 100 is complete control
[24] = Amaranthus retroflexus, post-emergence, 240 h, read-out: Plant response rating, Pigweed
[25] = Triticum aestivum, post-emergence, 240 h, read-out: Plant response rating, Wheat
[26] = Lolium multiflorum, post-emergence, 240 h, read-out: Plant response rating, Ryegrass, Italian
[27] = Bassia scoparia, post-emergence, 240 h, read-out: Plant response rating, Kochia
[28] = Setaria faberi, post-emergence, 240 h, read-out: Plant response rating, Foxtail, Giant
[29] = Alopecurus myosuroides, post-emergence, 240 h, read-out: Plant response rating, Blackgrass
[30] = Echinochloa crus-galli, post-emergence, 240 h, read-out: Plant response rating, Barnyardgrass
[31] = Ambrosia artemisiifolia, post-emergence, 240 h, read-out: Plant response rating, Ragweed
[32] = Galium, post-emergence, 240 h, read-out: Plant response rating, Galium
[33] = Zea mays, post-emergence, 240 h, read-out: Plant response rating, Corn

O=C1NCC(c2cccc(F)c2)C1C(=O)Nc1ccccc1C(F)(F)F (racemic) [Compound 376]
Plant response rating, Ducksalad [1, 19]: 100
Plant response rating, Sedge, Umbrella [2, 19]: 0
Plant response rating, Barnyardgrass [3, 19]: 70
Plant response rating, Rice (rice (Oryra sativa); [19]): 0
Plant response rating, Pigweed [4, 20]: 0
Plant response rating, Pigweed [4, 21]: 0
Plant response rating, Wheat [5, 20]: 0
Plant response rating, Wheat [5, 21]: 0
Plant response rating, Ryegrass, Italian [6, 20]: 20
Plant response rating, Ryegrass, Italian [6, 21]: 0
Plant response rating, Kochia (Kochia (Kochia scoparia) [7]; [20]): 20
Plant response rating, Kochia (Kochia (Kochia scoparia) [7]; [21]): 0
Plant response rating, Foxtail, Giant [8, 20]: 90
Plant response rating, Foxtail, Giant [8, 21]: 90
Plant response rating, Blackgrass [9, 20]: 40
Plant response rating, Blackgrass [9, 21]: 0
Plant response rating, Barnyardgrass [10, 20]: 90
Plant response rating, Barnyardgrass [10, 21]: 90
Plant response rating, Ragweed [11, 20]: 20
Plant response rating, Ragweed [11, 21]: 0
Plant response rating, Galium [12, 20]: 30
Plant response rating, Galium [12, 21]: 30
Plant response rating, Corn (corn (Zea mays); [20]): 30
Plant response rating, Corn (corn (Zea mays); [21]): 0
Plant response rating, Pigweed [13, 22]: 0
Pigweed plant response rating (0 to 100 scale) [13, 23]: 0
Plant response rating, Ryegrass, Italian [14, 22]: 0
Ryegrass, Italian plant response rating (0 to 100 scale) [14, 23]: 20
Plant response rating, Kochia (Kochia (Kochia scoparia) [15]; [22]): 0
Kochia plant response rating (0 to 100 scale) (Kochia (Kochia scoparia) [15]; [23]): 0
Plant response rating, Foxtail, Giant [16, 22]: 90
Foxtail, Giant plant response rating (0 to 100 scale) [16, 23]: 90
Plant response rating, Barnyardgrass [17, 22]: 90
Barnyardgrass plant response rating (0 to 100 scale) [17, 23]: 90
Plant response rating, Ragweed [18, 22]: 0
Ragweed plant response rating (0 to 100 scale) [18, 23]: 0

COc1ccc([C@H]2CN(C)C(=O)[C@@H]2C(=O)Nc2ccccc2SC)cc1F [Compound 1022]
pest or weed control at 250 g/ha ([1]; Heteranthera limosa, read-out: Ducksalad plant response rating): 75%
pest or weed control at 250 g/ha ([2]; Cyperus difformis, read-out: Sedge, Umbrella plant response rating): 0%
pest or weed control at 250 g/ha ([3]; Echinochloa crus-galli, read-out: Barnyardgrass plant response rating): 0%
pest or weed control at 250 g/ha (rice (Oryra sativa); Oryza sativa, read-out: Rice plant response rating): 0%
pest or weed control at 125 g/ha [4, 24]: 0%
pest or weed control at 500 g/ha [4, 24]: 0%
plant injury at 125 g/ha [5, 25]: 0%
plant injury at 500 g/ha [5, 25]: 30%
pest or weed control at 125 g/ha [6, 26]: 0%
pest or weed control at 500 g/ha [6, 26]: 30%
pest or weed control at 125 g/ha (Kochia (Kochia scoparia) [7]; [27]): 30%
pest or weed control at 500 g/ha (Kochia (Kochia scoparia) [7]; [27]): 60%
pest or weed control at 125 g/ha [8, 28]: 50%
pest or weed control at 500 g/ha [8, 28]: 70%
pest or weed control at 125 g/ha [9, 29]: 0%
pest or weed control at 500 g/ha [9, 29]: 0%
pest or weed control at 125 g/ha [10, 30]: 60%
pest or weed control at 500 g/ha [10, 30]: 100%
pest or weed control at 125 g/ha [11, 31]: 0%
pest or weed control at 500 g/ha [11, 31]: 0%
pest or weed control at 125 g/ha [12, 32]: 30%
pest or weed control at 500 g/ha [12, 32]: 50%
plant injury at 125 g/ha (corn (Zea mays); [33]): 0%
plant injury at 500 g/ha (corn (Zea mays); [33]): 20%
pest or weed control at 500 g/ha ([13]; Amaranthus retroflexus, pre-emergence, 240 h, read-out: Pigweed plant response rating): 70%
pest or weed control at 125 g/ha ([13]; Amaranthus retroflexus, pre-emergence, 240 h, read-out: Pigweed plant response rating (0 to 100 scale, 0 is no effect, 100 is complete control)): 30%
pest or weed control at 500 g/ha ([14]; Lolium multiflorum, pre-emergence, 240 h, read-out: Ryegrass, Italian plant response rating): 50%
pest or weed control at 125 g/ha ([14]; Lolium multiflorum, pre-emergence, 240 h, read-out: Ryegrass, Italian plant response rating (0 to 100 scale, 0 is no effect, 100 is complete control)): 0%
pest or weed control at 500 g/ha (Kochia (Kochia scoparia) [15]; Bassia scoparia, pre-emergence, 240 h, read-out: Kochia plant response rating): 80%
pest or weed control at 125 g/ha (Kochia (Kochia scoparia) [15]; Bassia scoparia, pre-emergence, 240 h, read-out: Kochia plant response rating (0 to 100 scale, 0 is no effect, 100 is complete control)): 70%
pest or weed control at 500 g/ha ([16]; Setaria faberi, pre-emergence, 240 h, read-out: Foxtail, Giant plant response rating): 100%
pest or weed control at 125 g/ha ([16]; Setaria faberi, pre-emergence, 240 h, read-out: Foxtail, Giant plant response rating (0 to 100 scale, 0 is no effect, 100 is complete control)): 100%
pest or weed control at 500 g/ha ([17]; Echinochloa crus-galli, pre-emergence, 240 h, read-out: Barnyardgrass plant response rating): 100%
pest or weed control at 125 g/ha ([17]; Echinochloa crus-galli, pre-emergence, 240 h, read-out: Barnyardgrass plant response rating (0 to 100 scale, 0 is no effect, 100 is complete control)): 60%
pest or weed control at 500 g/ha ([18]; Ambrosia artemisiifolia, pre-emergence, 240 h, read-out: Ragweed plant response rating): 0%
pest or weed control at 125 g/ha ([18]; Ambrosia artemisiifolia, pre-emergence, 240 h, read-out: Ragweed plant response rating (0 to 100 scale, 0 is no effect, 100 is complete control)): 0%
